PubChem BioAssay (NCI)
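Exposure lasted 48 hours, with cells grown in 96-well plates and compounds tested at five concentrations. GI50 = concentration required for 50% inhibition of growth. TGI denotes the concentration required for complete inhibition of growth.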

Experiments:
Assay in all cases: growth of human tumour cells (NCI), 48 h
CAKI-1 renal = tested on: CAKI-1 renal
HCT-116 colon = tested on: HCT-116 colon
HT29 colon = tested on: HT29 colon
K-562 leukemia = tested on: K-562 leukemia
LOX IMVI melanoma = tested on: LOX IMVI melanoma
M14 melanoma = tested on: M14 melanoma
NCI-H23 lung = tested on: NCI-H23 lung
OVCAR-4 ovarian = tested on: OVCAR-4 ovarian
SK-MEL-5 melanoma = tested on: SK-MEL-5 melanoma
UACC-62 melanoma = tested on: UACC-62 melanoma

Compound	GI50 (CAKI-1 renal) [µM]	TGI (CAKI-1 renal) [µM]	GI50 (HCT-116 colon) [µM]	TGI (HCT-116 colon) [µM]	GI50 (HT29 colon) [µM]	TGI (HT29 colon) [µM]	GI50 (K-562 leukemia) [µM]	TGI (K-562 leukemia) [µM]	GI50 (LOX IMVI melanoma) [µM]	TGI (LOX IMVI melanoma) [µM]	GI50 (M14 melanoma) [µM]	TGI (M14 melanoma) [µM]	GI50 (NCI-H23 lung) [µM]	TGI (NCI-H23 lung) [µM]	GI50 (OVCAR-4 ovarian) [µM]	TGI (OVCAR-4 ovarian) [µM]	GI50 (SK-MEL-5 melanoma) [µM]	TGI (SK-MEL-5 melanoma) [µM]	GI50 (UACC-62 melanoma) [µM]	TGI (UACC-62 melanoma) [µM]
CCCc1nc2c(C)cc(-c3nc4ccccc4n3C)cc2n1Cc1ccc(-c2ccccc2C(=O)O)cc1	22.6	61.3	43.4	> 100	35.8	> 100	23.2	> 100	23.2	> 100	34.5	> 100	51.5	> 100	50.6	> 100	25.8	> 100	22.4	> 100
CC(C)=CC(=O)Cc1nc2cc(C)c(C)cc2[nH]c1=O	–	> 100	–	> 100	–	> 100	–	> 100	–	> 100	–	> 100	–	> 100	–	> 100	–	> 100	–	> 100
CCOC(=O)c1sc(=S)c2c(C(=O)OCC)c(C(=O)OCC)sc2c1C(=O)OCC	26.5	93.9	18	40	28	> 100	10.6	25.1	14.1	27.9	16.8	32.6	17.4	35.5	20.7	56.9	16.4	32.9	12.1	26.9
COc1ccc(/C(C)=N/OC(=O)c2c(-c3ccccc3Cl)noc2C)cc1CN1CCOCC1	–	> 100	–	36.5	–	36.9	–	> 100	–	28.1	–	28	–	> 100	–	> 100	–	31.8	–	30
COC(=O)CCC/C=C\C[C@H]1C=CC(=O)/C1=C/C[C@@H](O)C/C=C\CC(F)(F)F	4.07	14.8	1.26	2.75	1.89	4.49	0.789	28.3	0.243	0.668	1.5	4.39	1.9	4.16	5.09	18.6	1.64	3.05	1.2	3.64
COc1ccc2c(c1)CC[C@@H]1[C@@H]2CC[C@]2(C)C(c3ccco3)=C(C=O)C[C@@H]12	2.5	7.59	2.95	12.8	5.37	> 100	3.56	22.7	6.89	23.8	5.24	30.5	12.7	69.4	20	> 100	5.72	19	3.82	16.3
CCN(CC)C(=O)COc1ccc(Br)cc1Br	–	> 100	–	> 100	–	> 100	–	> 100	–	> 100	–	> 100	–	> 100	–	> 100	–	> 100	–	> 100
CSc1nc2sc3cc(Cl)ccc3n2c(=N)c1C#N	17.1	88.2	> 25.7	> 100	5.35	> 100	> 52.4	> 100	> 74.4	> 100	> 54.7	> 100	> 52	> 100	8.9	> 100	3.2	> 25.9	17.7	> 100
CC1OC(OCC2COC(O)(Oc3c(-c4ccc(O)c(O)c4)oc4cc(O)cc(O)c4c3=O)C(O)C2O)C(O)C(O)C1O (stereo not given)	–	> 100	–	> 100	–	> 100	–	> 100	–	> 100	–	> 100	–	> 100	–	> 100	–	> 100	–	> 100
CC1=C(C(=O)NCc2ccccc2)C(c2ccccc2[N+](=O)[O-])C(C(=O)NCc2ccccc2)=C(C)N1	–	50	–	19.7	–	28	–	24.8	–	21.3	–	23.9	–	25.4	–	22.9	–	25.9	–	22.9
NS(=O)(=O)c1ccc(CCN=C=S)cc1	1.53	3.03	1.75	3.45	2.54	6.66	2.54	> 100	1.92	3.72	2.09	4.51	2.62	7.54	1.9	4.15	2.14	4.89	1.81	3.59
Nc1nc2nc[nH]c2c(=O)[nH]1	–	> 100	–	> 100	–	> 100	–	> 100	–	> 100	–	> 100	–	> 100	–	> 100	–	> 100	–	> 100
COc1ccc(/C=C/c2n[nH]c3ccc(N4CCOC4=O)cc23)cc1	2.48	> 100	0.693	13.6	1.49	> 100	2.54	> 100	2.52	27.7	1.88	10.5	1.79	6.18	5.06	> 100	2.15	5.66	2.6	6.83
O=[N+]([O-])c1nccn1COCCF	–	> 100	–	> 100	–	> 100	–	> 100	–	> 100	–	> 100	–	> 100	–	> 100	–	> 100	–	> 100
NCCNC(=S)S	–	> 100	–	> 100	–	> 100	–	95.1	–	> 100	–	> 100	–	> 100	–	> 100	–	> 100	–	> 100
